{
  "source": "patent US12228565B2",
  "about": "“Blood cell lysis compositions and uses thereof” (Instrumentation Laboratory Company, priority 2021, dated 2025)",
  "key": {"[1]": {"assay": "Foam height of surfactant in water based solution (Ross-Miles method)", "assay_type": "physicochemical", "text": "(§1) Surfactants used for lysing, including the secondary alcohol ethoxylates described herein, may lower surface tension in a liquid blood sample and induce foam formation in the blood sample as air is mixed into the blood sample. Foam is detrimental to optical absorbance measurements because it causes additional light scattering. In some implementations, surfactants for performing cell lysis in CO-Oximetry may reduce or minimize foam formation and/or produce foam that dissipates quickly prior to spectral measurements. […] (Celsius). […] Standard measurements of the foam height may be taken, for example, five minutes after addition of the surfactant to a water based solution. The foam height produced by a secondary alcohol ethoxylate may be measured, for example, using the Ross-Miles method.\n(§2) Triton-X100 is a control (or reference) surfactant against which the secondary alcohol ethoxylate surfactants are compared. […] In Table 1 below, […], which is a property of the surfactant that indicates/relates to the effectiveness of the material as a surfactant."}, "[2]": {"assay": "Surface tension of surfactant", "assay_type": "physicochemical", "text": "as §1, §2"}, "whole blood cells": {"test_system": "whole blood cells", "conditions": "after 1 to 2 seconds; composition of Table 2, surfactant 9-14%", "description": "The blood sample analyzed by CO-Oximeter system 5 may be a whole blood sample that is lysed using one or more of the blood cell lysing compositions described herein. More specifically, in example CO-Oximeter 5, a blood cell lysis composition and a blood sample are introduced into a mixing chamber—e.g., through a mixing valve—in an optical cell 7. Movement of the blood sample and blood cell lysis composition through the mixing chamber under simultaneous actuation implemented by a solenoid causes the blood sample and lysis composition to simultaneously mix and lyse the red blood cells. The resulting mixture constitutes a lysed blood sample that is usable to obtain optical absorbance measurements by the CO-Oximeter with a reduction or elimination of scattering effects caused by red blood cells.\nIn an example testing procedure, secondary alcohol ethoxylate1 and secondary alcohol ethoxylate2 were included in the example blood cell lysis composition described with respect to Table 2 below at concentrations of 9% to 14% and tested in a CO-Oximetry system of the type described herein."}},
  "data": [
    {"substance": "Tergitol™ Type 15-S-9 [secondary alcohol ethoxylate2]", "values": [
      {"measurement": "Foam Height—5 minutes (0.1 weight % actives)", "setting": "[1]", "result": 43, "unit": "mm"},
      {"measurement": "Foam height—Initial (0.1 weight % actives)", "setting": "[1]", "result": 124, "unit": "mm"},
      {"measurement": "Surface Tension (1% actives, 25° C.)", "setting": "[2]", "result": 30, "unit": "dynes/cm"},
      {"measurement": "lysis of whole blood cells", "setting": "whole blood cells", "result": "about 100%"}
    ]},
    {"substance": "Triton X-100 [reference compound]", "values": [
      {"measurement": "Foam Height—5 minutes (0.1 weight % actives)", "setting": "[1]", "result": 107, "unit": "mm"},
      {"measurement": "Foam height—Initial (0.1 weight % actives)", "setting": "[1]", "result": 128, "unit": "mm"},
      {"measurement": "Surface Tension (1% actives, 25° C.)", "setting": "[2]", "result": 33, "unit": "dynes/ dynes/cm"}
    ]}
  ]
}
